# Experiments:
# [1] = target: LIM domain kinase 2 (Homo sapiens, UniProt P53671); experiment: Inhibition of human LIMK2 in presence of 10 uM of ATP by radiometric analysis
# [2] = target: Bone morphogenetic protein receptor type-1B (Homo sapiens, UniProt O00238); experiment: Inhibition of human recombinant ALK6 (148 to end residues) using casein as substrate incubated for 40 mins in presence of [gamma-33P]ATP by radiometric scintillation counting analysis
# [3] = target: Serine/threonine-protein kinase A-Raf (Homo sapiens, UniProt P10398); experiment: Inhibition of human recombinant A-Raf (273 to end residues) using myelin as substrate incubated for 40 mins in presence of [gamma-33ATP] by radiometric scintillation counting analysis
# [4] = target: Calcium/calmodulin-dependent protein kinase type II subunit beta (Homo sapiens, UniProt Q13554); experiment: Inhibition of recombinant human CaMK2beta (1 to 315 residues) using calmodulin a substrate incubated for 40 mins in presence of [gamma-33ATP] by radiometric scintillation counting analysis
# [5] = target: Calcium/calmodulin-dependent protein kinase type II subunit gamma (Homo sapiens, UniProt Q13555); experiment: Inhibition of recombinant human CaMK2gamma (1 to 330 residues) using calmodulin as substrate incubated for 40 mins in presence of [gamma-33ATP] by radiometric scintillation counting analysis
# [6] = target: CDK4/Cyclin D3 (Homo sapiens, UniProt P11802); experiment: Inhibition of recombinant full length human CDK4/CyclinD3 using Rb fragment as substrate incubated for 40 mins in presence of [gamma-33ATP] by radiometric scintillation counting analysis; assay type: protein-complex assay
# [7] = target: Cyclin-dependent kinase-like 4 (Homo sapiens, UniProt Q5MAI5); experiment: Inhibition of recombinant full length human CDKL4 in presence of [gamma-33ATP] by radiometric scintillation counting analysis
# [8] = target: Mast/stem cell growth factor receptor Kit (Homo sapiens, UniProt P10721, V654A); experiment: Inhibition of recombinant human C-Kit V654A mutant (544 to end residues) using poly(Glu, Tyr) 4:1 as substrate incubated 40 mins in presence of [gamma-33ATP] by radiometric scintillation counting analysis
# [9] = target: Eukaryotic elongation factor 2 kinase (Homo sapiens, UniProt O00418, H23R); experiment: Inhibition of recombinant human eEF2K H23R mutant (2 to end residues) using RKKFGESEKTKTK as substrate after 40 mins in presence of [gamma-33ATP] by radiometric scintillation counting analysis
# [10] = target: Muscle, skeletal receptor tyrosine-protein kinase (Homo sapiens, UniProt O15146); experiment: Inhibition of recombinant human MUSK (530 to end residues) using myelin basic protein as substrate measured after 40 mins in presence of [gamma33P]ATP by radiometric scintillation counting analysis
# [11] = target: Mitogen-activated protein kinase kinase kinase 10 (Homo sapiens, UniProt Q02779); experiment: Inhibition of recombinant human MLK2 (1 to 499 residues) using myelin basic protein as substrate incubated for 40 mins in presence of [gamma-33ATP by radiometric scintillation counting analysis
# [12] = target: Ribosomal protein S6 kinase alpha-4 (Homo sapiens, UniProt O75676); experiment: Inhibition of recombinant human MSK2 (2 to end residues) using GRPRTSSFAEGKK as substrate incubated for 40 mins in presence of [gamma-33ATP by radiometric scintillation counting analysis
# [13] = target: Hepatocyte growth factor receptor (Homo sapiens, UniProt P08581, D1228H); experiment: Inhibition of recombinant human MET A1209G/V1290L/D1246H triple mutant (974 to end residues) using KKKGQEEEYVFIE as substrate incubated for 40 mins in presence of [gamma-33ATP by radiometric scintillation counting analysis
# [14] = target: Rhodopsin kinase GRK1 (Homo sapiens, UniProt Q15835); experiment: Inhibition of recombinant full length human GRK1 using KKKKERLLDDRHD as substrate after 40 mins in presence of [gamma-33ATP] by radiometric scintillation counting analysis
# [15] = target: Tyrosine-protein kinase ITK/TSK (Homo sapiens, UniProt Q08881); experiment: Inhibition of human recombinant Itk (352 to 617 residues) using myelin basic protein as substrate after 40 mins by [gamma-33ATP] by radiometric scintillation counting analysis
# [16] = target: Leukocyte tyrosine kinase receptor (Homo sapiens, UniProt P29376); experiment: Inhibition of recombinant human LTK (450 to end residues) using GEEPLYWSFPAKK as substrate after 40 mins in presence of [gamma-33ATP] by radiometric scintillation counting analysis
# [17] = target: Mitogen-activated protein kinase kinase kinase kinase 4 (Homo sapiens, UniProt O95819); experiment: Inhibition of recombinant human MAP4K4 (1 to 328 residues) using RLGRDKYKTLRQI as substrate incubated for 40 mins in presence of [gamma-33ATP by radiometric scintillation counting analysis
# [18] = Inhibition of recombinant human MER H628Q/R794A double mutant (557 to 882 residues) using KKLNRTLSFAEPG as substrate incubated for 40 mins in presence of [gamma-33ATP by radiometric scintillation counting analysis
# [19] = target: Interferon-induced, double-stranded RNA-activated protein kinase (Homo sapiens, UniProt P19525); experiment: Inhibition of recombinant human PKR (252 to end residues) using RSRSRSRSRSRSRS as substrate incubated for 40 mins in presence of [gamma33P]ATP by radiometric scintillation counting analysis
# [20] = target: Serine/threonine-protein kinase N2 (Homo sapiens, UniProt Q16513); experiment: Inhibition of recombinant human PRK2 (501 to end residues) using AKRRRLSSLRA as substrate incubated for 40 mins in presence of [gamma33P]ATP by radiometric scintillation counting analysis
# [21] = target: Proto-oncogene tyrosine-protein kinase Src (Homo sapiens, UniProt P12931, T341M); experiment: Inhibition of recombinant full length human SRC T341M mutant using GGEEEEYFELVKK as substrate incubated for 40 mins in presence of [gamma33P]ATP by radiometric scintillation counting analysis
# [22] = target: Serine/threonine-protein kinase WNK3 (Homo sapiens, UniProt Q9BYP7); experiment: Inhibition of recombinant human WNK3 (1 to 434 residues) using myelin basic protein as substrate incubated for 40 mins in presence of [gamma33P]ATP by radiometric scintillation counting analysis
# [23] = target: Tyrosine-protein kinase Yes (Homo sapiens, UniProt P07947); experiment: Inhibition of recombinant full-length human Yes using poly(Glu, Tyr) 4:1 as substrate incubated for 40 mins in presence of [gamma33P]ATP by radiometric scintillation counting analysis
# [24] = target: Tyrosine-protein kinase ZAP-70 (Homo sapiens, UniProt P43403); experiment: Inhibition of recombinant full length human ZAP70 using poly(Glu, Tyr) 4:1 as substrate incubated for 40 mins in presence of [gamma33P]ATP by radiometric scintillation counting analysis
# [25] = target: PI3-kinase p110-alpha/p85-alpha (Homo sapiens, UniProt P42336, H1047R); experiment: Inhibition of recombinant human full length PI3K p110alpha/p85alpha H1047R mutant using phosphatidylinositol 4,5-bisphosphate as substrate incubated for 40 mins in presence of [gamma33P]ATP by radiometric scintillation counting analysis
# Chain of Serine/threonine-protein kinase A-Raf (P10398 whole entry, the tested form may be a part): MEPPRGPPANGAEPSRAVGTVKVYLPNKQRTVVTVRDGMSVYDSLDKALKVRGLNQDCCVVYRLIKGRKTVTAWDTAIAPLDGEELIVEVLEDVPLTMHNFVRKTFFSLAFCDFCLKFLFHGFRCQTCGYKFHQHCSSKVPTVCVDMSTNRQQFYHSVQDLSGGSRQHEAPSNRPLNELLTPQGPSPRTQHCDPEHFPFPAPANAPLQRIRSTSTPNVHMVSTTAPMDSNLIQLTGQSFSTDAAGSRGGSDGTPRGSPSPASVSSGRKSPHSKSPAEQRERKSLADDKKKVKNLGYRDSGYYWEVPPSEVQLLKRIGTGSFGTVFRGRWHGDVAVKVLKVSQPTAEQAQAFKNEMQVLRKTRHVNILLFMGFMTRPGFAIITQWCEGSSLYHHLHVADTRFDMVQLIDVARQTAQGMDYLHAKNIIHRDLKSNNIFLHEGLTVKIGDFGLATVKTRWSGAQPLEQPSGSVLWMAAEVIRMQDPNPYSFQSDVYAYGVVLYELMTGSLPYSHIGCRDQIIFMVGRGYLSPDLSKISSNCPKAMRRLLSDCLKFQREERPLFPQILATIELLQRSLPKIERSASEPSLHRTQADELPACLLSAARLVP
# Chain of LIM domain kinase 2 (P53671 whole entry, the tested form may be a part): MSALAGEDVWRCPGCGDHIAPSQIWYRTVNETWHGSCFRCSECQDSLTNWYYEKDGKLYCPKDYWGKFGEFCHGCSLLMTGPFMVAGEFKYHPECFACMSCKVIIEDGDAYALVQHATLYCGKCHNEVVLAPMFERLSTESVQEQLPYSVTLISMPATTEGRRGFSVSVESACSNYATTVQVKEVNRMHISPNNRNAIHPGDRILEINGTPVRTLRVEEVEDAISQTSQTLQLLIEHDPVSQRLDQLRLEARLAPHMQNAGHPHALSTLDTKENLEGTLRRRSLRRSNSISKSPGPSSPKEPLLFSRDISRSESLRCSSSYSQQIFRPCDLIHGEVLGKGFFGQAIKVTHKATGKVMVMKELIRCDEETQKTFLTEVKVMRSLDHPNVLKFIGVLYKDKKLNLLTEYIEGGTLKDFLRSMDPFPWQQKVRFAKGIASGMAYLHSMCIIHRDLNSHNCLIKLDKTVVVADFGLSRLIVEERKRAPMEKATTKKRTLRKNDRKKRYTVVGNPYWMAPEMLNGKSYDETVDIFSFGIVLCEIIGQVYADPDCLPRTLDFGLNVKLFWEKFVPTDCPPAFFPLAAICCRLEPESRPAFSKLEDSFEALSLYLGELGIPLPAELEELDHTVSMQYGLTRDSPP
# Chain of Tyrosine-protein kinase ZAP-70 (P43403 whole entry): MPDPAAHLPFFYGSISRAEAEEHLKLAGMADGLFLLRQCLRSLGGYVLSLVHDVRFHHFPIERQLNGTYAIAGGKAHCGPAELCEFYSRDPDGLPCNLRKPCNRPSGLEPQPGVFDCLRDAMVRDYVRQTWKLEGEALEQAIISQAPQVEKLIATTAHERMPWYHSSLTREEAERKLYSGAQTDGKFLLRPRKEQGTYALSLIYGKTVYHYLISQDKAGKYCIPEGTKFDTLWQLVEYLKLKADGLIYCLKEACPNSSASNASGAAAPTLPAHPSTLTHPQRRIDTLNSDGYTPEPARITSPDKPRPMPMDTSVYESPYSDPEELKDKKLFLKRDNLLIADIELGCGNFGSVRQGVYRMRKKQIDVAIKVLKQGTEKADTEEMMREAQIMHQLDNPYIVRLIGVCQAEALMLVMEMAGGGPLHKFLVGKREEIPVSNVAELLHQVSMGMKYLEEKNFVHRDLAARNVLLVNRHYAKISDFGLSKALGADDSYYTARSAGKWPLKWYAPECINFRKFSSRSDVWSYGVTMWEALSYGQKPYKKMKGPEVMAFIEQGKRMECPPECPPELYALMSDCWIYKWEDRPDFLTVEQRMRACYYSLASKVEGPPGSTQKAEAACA
# Chain of Calcium/calmodulin-dependent protein kinase type II subunit gamma (Q13555 whole entry, the tested form may be a part): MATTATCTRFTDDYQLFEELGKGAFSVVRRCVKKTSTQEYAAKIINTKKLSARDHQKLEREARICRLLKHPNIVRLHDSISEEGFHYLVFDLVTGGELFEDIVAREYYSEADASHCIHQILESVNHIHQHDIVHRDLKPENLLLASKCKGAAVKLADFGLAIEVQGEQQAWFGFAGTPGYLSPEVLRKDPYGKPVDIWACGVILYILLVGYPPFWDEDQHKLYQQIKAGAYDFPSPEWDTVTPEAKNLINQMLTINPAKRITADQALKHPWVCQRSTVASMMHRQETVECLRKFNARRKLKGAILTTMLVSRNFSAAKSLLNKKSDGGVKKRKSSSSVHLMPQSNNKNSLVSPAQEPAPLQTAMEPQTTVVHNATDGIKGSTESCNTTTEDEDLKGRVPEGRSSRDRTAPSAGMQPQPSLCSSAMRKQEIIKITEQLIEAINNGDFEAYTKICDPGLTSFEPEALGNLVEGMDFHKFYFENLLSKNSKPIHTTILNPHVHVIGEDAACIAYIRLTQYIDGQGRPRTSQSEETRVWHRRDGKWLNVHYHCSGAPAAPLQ
# Chain of Serine/threonine-protein kinase WNK3 (Q9BYP7 whole entry, the tested form may be a part): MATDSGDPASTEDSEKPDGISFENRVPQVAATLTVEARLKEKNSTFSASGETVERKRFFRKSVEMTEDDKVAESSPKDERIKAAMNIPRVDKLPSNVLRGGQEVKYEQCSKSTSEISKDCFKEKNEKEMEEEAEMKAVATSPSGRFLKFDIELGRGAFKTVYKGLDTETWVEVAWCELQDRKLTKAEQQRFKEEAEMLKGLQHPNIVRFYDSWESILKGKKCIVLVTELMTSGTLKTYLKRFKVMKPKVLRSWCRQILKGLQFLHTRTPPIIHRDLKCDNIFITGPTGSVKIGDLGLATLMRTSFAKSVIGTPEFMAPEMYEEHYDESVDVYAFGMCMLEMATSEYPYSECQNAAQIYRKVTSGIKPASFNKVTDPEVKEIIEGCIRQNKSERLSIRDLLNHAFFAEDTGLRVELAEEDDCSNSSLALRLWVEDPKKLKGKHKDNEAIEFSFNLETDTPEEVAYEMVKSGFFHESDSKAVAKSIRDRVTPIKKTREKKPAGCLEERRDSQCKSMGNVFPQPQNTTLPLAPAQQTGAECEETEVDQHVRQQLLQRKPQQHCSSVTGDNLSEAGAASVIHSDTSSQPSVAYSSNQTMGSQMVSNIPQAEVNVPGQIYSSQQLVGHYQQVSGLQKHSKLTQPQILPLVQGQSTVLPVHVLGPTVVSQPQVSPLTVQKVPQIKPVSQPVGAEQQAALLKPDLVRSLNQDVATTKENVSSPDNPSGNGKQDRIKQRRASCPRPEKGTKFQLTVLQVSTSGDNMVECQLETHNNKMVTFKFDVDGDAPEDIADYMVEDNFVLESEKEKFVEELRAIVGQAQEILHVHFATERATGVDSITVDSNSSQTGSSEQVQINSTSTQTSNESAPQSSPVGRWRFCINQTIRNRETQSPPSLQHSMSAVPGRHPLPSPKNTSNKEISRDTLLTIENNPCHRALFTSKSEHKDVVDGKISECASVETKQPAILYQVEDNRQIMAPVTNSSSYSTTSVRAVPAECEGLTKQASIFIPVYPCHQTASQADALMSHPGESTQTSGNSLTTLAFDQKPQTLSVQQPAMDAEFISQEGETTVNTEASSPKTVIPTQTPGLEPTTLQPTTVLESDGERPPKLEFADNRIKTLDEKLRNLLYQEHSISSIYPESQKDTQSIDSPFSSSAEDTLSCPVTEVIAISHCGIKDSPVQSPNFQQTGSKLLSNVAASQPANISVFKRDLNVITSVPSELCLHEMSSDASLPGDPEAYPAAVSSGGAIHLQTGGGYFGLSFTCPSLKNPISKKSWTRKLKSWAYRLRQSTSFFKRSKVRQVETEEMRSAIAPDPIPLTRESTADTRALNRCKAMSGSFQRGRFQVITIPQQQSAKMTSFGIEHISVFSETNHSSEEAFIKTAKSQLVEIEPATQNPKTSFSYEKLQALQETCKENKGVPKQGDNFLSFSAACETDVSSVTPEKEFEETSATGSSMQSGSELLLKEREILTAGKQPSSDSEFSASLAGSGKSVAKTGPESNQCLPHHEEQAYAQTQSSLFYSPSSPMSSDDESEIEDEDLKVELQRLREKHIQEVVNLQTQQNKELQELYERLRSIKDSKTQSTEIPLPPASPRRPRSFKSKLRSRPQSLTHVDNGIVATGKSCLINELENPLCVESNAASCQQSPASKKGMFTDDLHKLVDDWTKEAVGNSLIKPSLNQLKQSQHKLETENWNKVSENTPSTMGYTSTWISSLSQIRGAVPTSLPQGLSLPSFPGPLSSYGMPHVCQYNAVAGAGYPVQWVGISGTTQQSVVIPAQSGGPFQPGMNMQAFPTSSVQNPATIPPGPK
# Chain of Eukaryotic elongation factor 2 kinase (O00418 2-725 H23R limits assumed): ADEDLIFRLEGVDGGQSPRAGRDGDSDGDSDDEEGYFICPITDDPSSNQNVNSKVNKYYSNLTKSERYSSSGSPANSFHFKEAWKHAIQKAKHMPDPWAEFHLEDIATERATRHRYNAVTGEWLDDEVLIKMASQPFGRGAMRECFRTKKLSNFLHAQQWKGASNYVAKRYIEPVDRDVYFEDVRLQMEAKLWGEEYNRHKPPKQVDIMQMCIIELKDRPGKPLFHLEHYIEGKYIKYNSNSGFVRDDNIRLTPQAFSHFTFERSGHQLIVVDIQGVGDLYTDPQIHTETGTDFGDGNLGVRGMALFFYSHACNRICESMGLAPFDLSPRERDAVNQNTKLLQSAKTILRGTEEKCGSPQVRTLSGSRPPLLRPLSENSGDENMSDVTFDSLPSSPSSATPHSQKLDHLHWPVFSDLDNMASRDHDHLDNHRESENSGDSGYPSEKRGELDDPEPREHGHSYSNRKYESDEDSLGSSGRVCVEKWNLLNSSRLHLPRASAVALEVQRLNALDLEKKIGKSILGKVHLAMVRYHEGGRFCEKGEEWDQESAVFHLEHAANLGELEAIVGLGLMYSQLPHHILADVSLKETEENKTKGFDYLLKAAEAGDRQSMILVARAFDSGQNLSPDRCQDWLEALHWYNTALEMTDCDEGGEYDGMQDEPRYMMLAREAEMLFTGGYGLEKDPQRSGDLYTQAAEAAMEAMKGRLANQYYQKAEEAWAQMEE
structure (smiles),measurement,setting,value
CN(C)c1ccc(C(=O)Nc2cccc(NC(=O)COc3ccc4c(=O)ccoc4c3)c2)cc1,IC50,[1],0.046 µM
same,IC50,[2],> 10 µM
same,IC50,[3],> 10 µM
same,IC50,[4],> 10 µM
same,IC50,[5],> 10 µM
same,IC50,[6],> 10 µM
same,IC50,[7],> 10 µM
same,IC50,[8],> 10 µM
same,IC50,[9],> 10 µM
same,IC50,[10],> 10 µM
same,IC50,[11],> 10 µM
same,IC50,[12],> 10 µM
same,IC50,[13],> 10 µM
same,IC50,[14],> 10 µM
same,IC50,[15],> 10 µM
same,IC50,[16],> 10 µM
same,IC50,[17],> 10 µM
same,IC50,[18],> 10 µM
same,IC50,[19],> 10 µM
same,IC50,[20],> 10 µM
same,IC50,[21],> 10 µM
same,IC50,[22],> 10 µM
same,IC50,[23],> 10 µM
same,IC50,[24],> 10 µM
same,IC50,[25],> 10 µM

# From ChEMBL document CHEMBL4376834, “Discovery of 4H-Chromen-4-one Derivatives as a New Class of Selective Rho Kinase (ROCK) Inhibitors, which Showed Potent Activity in ex Vivo Diabetic Retinopathy Models” (J Med Chem, 2019)
